Each structure is given as a SMILES string.

Assay [1] relates to T-Rex 293 cell line SC cells having increased expression of progesterone receptor isoform B protein. The experiment in a line: Cellular growth inhibition assay, T-Rex 293 SC cells exposed to doxycycline (increased progesterone receptor isoform B expression), CellTiter-Glo. Format: cell-based. Conditions: T-Rex 293 SC cells with 10 ng/mL doxycycline (increased PR isoform B), 72 hours. As to the method:
The SC cells were seeded on poly-D-lysine coated, black clear-bottom 384-well plates at 2500/well, in 25 μL Phenol Red Free Dulbecco's Modified Eagle Medium (DMEM) supplemented with 10% w/w charcoal-dextran treated fetal bovine serum (FBS) and 1% w/w pen-strep, with or without 10 ng/mL doxycycline. Pen-Strep is a commercially available mixture of penicillin G and streptomycin, which is used in mammalian cell culture media to prevent bacterial contamination. Phenol Red Free Dulbecco's Modified Eagle Medium (DMEM) supplemented with 10% w/w charcoal-dextran treated fetal bovine serum (FBS) and 1% w/w pen-strep, with or without 10 ng/mL doxycycline is herein referred to as Treatment Medium. Following seeding of cells in the plates, the plates were spun at 300×g for 30 seconds, then equilibrated to room temperature for 30 minutes, and then deposited in a humidified tissue culture incubator maintained at 37° C. with 5% CO2.
At 24 hours after seeding of the cells, dilutions of test compound were prepared in DMSO and dissolved in Treatment Medium, to achieve a final DMSO concentration of 0.5% w/w, thereby providing the Test Compound Solution. A 25 μL aliquot of the Test Compound Solution was added to cells in the well plates. An equal volume of a solution containing DMSO and Treatment Medium was used as a negative control. Following treatment of cells with Test Compound Solution or said equal volume of a solution containing DMSO and Treatment Medium, the plates were spun at 300×g for 30 seconds, and then left in an incubator for 72 hours.
At the end of the treatment duration, cell viability was quantified with CellTiter-Glo 2.0 reagent (Promega Cat #G9243). For this purpose, plates were equilibrated to room temperature for 30 minutes, and then 25 μL of CellTiter-Glo 2.0 reagent was added to cells in the plate wells. Plates were then agitated on a shaker for two minutes at 500 rpm and subsequently incubated at room temperature for 10 minutes. Following incubation, the plates were spun at 3000×g for 30 seconds, then sealed with an optical adhesive cover, and luminescence readings were measured with an EnVision Plate Reader (Perkin Elmer).
Data was normalized using zero luminescence for baseline. A four-parameter non-linear regression curve fit was applied to dose-response data in GraphPad Prism data analysis software to determine the half-maximal growth inhibitory concentration (GI50) for each test compound.

The target of assay [2] is T1, progesterone receptor ligand binding domain (GST-tagged PR LBD) (Homo sapiens, UniProt P06401).
T1 construct: purchased Life Technologies A15905 or a15906
T1 sequence (P06401 679-913 limits assumed): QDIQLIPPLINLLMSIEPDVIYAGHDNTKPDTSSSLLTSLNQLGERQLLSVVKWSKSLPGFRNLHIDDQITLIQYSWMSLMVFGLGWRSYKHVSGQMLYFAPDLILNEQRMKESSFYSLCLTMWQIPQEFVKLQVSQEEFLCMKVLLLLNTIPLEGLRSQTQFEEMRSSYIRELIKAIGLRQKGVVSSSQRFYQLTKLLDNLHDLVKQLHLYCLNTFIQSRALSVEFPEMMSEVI
The assay can be described thus: FP Assay for Binding Affinity to Progesterone Receptor (PolarScreen Progesterone Receptor Competitor Assay Kit). Conditions: fluorescence polarization, Fluormone tracer, 2 hours at room temperature. On the procedure:
Exemplary compounds were tested for ability to bind to the progesterone receptor ligand binding domain (LBD).
Compounds were tested using the PolarScreen™ Progesterone Receptor Competitor Assay Kit (Life Technologies Cat #A15905 or a15906), as per the manufacturer's instructions. Briefly, GST-tagged PR LBD, Fluormone tracer, and compound were mixed and incubated for 2 hours at room temperature in the dark. Following incubation, the plates were spun at 3000×g for 30 seconds, then sealed with an optical adhesive cover, and fluorescence polarization was measured using appropriate excitation and emission filters with an EnVision Plate Reader (Perkin Elmer). Compound concentration vs. mP value were plotted in Prism (GraphPad). A four-parameter non-linear regression curve fit was applied to dose-response data to determine the half-maximal inhibitory concentration (IC50) for each test compound.

In general, GI50 refers to the concentration giving 50% growth inhibition. A higher GI50 goes with less potent growth inhibition. Broadly, the IC50 is the concentration that inhibits the measured activity by half. The low end stands for greater potency in that assay, the high end for weaker potency in that assay. Regarding `CCS(=O)(=O)Nc1ccc(Oc2cccc(OC3CCC4(CC3)CCN(c3ncc(C(=O)N[C@H]5C(C)(C)[C@H](Oc6ccc(C#N)c(Cl)c6)C5(C)C)cn3)CC4)c2)c(-c2cn(C)c(=O)c3[nH]ccc23)c1` [Compound I-45], the GI50 in assay [1] is less than 500 nM. The IC50 in assay [2] is more than 2500 nM.

Turning to `Cn1cc(-c2cc(C(C)(C)O)ccc2Oc2cccc(N3CC(N4CCN(c5ncc(C(=O)N[C@H]6C(C)(C)[C@H](Oc7ccc(C#N)c(Cl)c7)C6(C)C)cn5)CC4)C3)c2F)c2cc[nH]c2c1=O` [Compound I-92, N-((1r, 3r)-3-(3-chloro-4-cyanophenoxy)-2,2,4,4-tetramethylcyclobutyl)-2-(4-(1-(2-fluoro-3-(4-(2-hydroxypropan-2-yl)-2-(6-methyl-7-oxo-6,7-dihydro-1H-pyrrolo[2,3-c]pyridin-4-yl)phenoxy)phenyl)azetidin-3-yl)piperazin-1-yl)pyrimidine-5-carboxamide], the GI50 in assay [1] is less than 500 nM.

In the case of `CCS(=O)(=O)Nc1ccc(Oc2cccc(OCCOC3CCN(c4ncc(C(=O)N[C@H]5C(C)(C)[C@H](Oc6ccc(C#N)c(Cl)c6)C5(C)C)cn4)CC3)c2)c(-c2cn(C)c(=O)c3[nH]ccc23)c1` [Compound I-6], the GI50 in assay [1] was less than 500 nM. As to `CCS(=O)(=O)Nc1ccc(Oc2cccc(N3CC(OC4CCN(c5ncc(C(=O)N[C@H]6C(C)(C)[C@H](Oc7ccc(C#N)c(Cl)c7)C6(C)C)cn5)CC4)C3)c2)c(-c2cn(C)c(=O)c3[nH]ccc23)c1` [Compound I-80], in assay [2], the IC50 is more than 2500 nM. Regarding `CN(CC1CCN(c2ncc(C(=O)N[C@H]3C(C)(C)[C@H](Oc4ccc(C#N)c(Cl)c4)C3(C)C)cn2)CC1)C1(c2ccc(Oc3ccc(C(C)(C)O)cc3-c3cn(C)c(=O)c4[nH]ccc34)cc2)COC1` [Compound I-255], the GI50 in assay [1] was less than 500 nM. In assay [2], this compound had an IC50 of 50 to 500 nM.

On to `Cn1cc(-c2cc(C(C)(C)O)ccc2Oc2cccc(N3CC(CC4CCN(c5ncc(C(=O)N[C@H]6C(C)(C)[C@H](Oc7ccc(C#N)c(Cl)c7)C6(C)C)cn5)CC4)C3)c2F)c2cc[nH]c2c1=O` [Compound I-196], for which the GI50 in assay [1] was less than 500 nM. On to `CCS(=O)(=O)Nc1ccc(Oc2cccc(N3CC4(CN(CC5CCN(c6ncc(C(=O)N[C@H]7C(C)(C)[C@H](Oc8ccc(C#N)c(Cl)c8)C7(C)C)cn6)CC5)C4)C3)c2)c(-c2cn(C)c(=O)c3[nH]ccc23)c1` [Compound I-35, N-((1r, 3r)-3-(3-chloro-4-cyanophenoxy)-2,2,4,4-tetramethylcyclobutyl)-2-(4-((6-(3-(4-(ethylsulfonamido)-2-(6-methyl-7-oxo-6,7-dihydro-1H-pyrrolo[2,3-c]pyridin-4-yl)phenoxy)phenyl)-2,6-diazaspiro[3.3]heptan-2-yl)methyl)piperidin-1-yl)pyrimidine-5-carboxamide], for which the GI50 in assay [1] is less than 500 nM. Also, the IC50 in assay [2] lay in the range of 500 to 2500 nM. For `Cn1cc(-c2cc(C(C)(C)O)ccc2Oc2ccc(N3CC(CN4CC5CC4CN5c4ncc(C(=O)N[C@H]5C(C)(C)[C@H](Oc6ccc(C#N)c(Cl)c6)C5(C)C)cn4)C3)cc2)c2cc[nH]c2c1=O` (some centres unmarked) [Compound I-228] the same measures were less than 500 nM and 50 to 500 nM. Compound `CC(C)N(CC1CCN(c2ncc(C(=O)N[C@H]3C(C)(C)[C@H](Oc4ccc(C#N)c(Cl)c4)C3(C)C)cn2)CC1)[C@H]1C[C@H](Oc2cccc(Oc3ccc(C(C)(C)O)cc3-c3cn(C)c(=O)c4[nH]ccc34)c2F)C1` [Compound I-214] gave an IC50 in assay [2] of less than 50 nM. In turn, `Cn1cc(-c2cc(C(C)(C)O)ccc2Oc2cccc(N3CC(OC4CCN(c5ncc(C(=O)N[C@H]6C(C)(C)[C@H](Oc7ccc(C#N)c(Cl)c7)C6(C)C)cn5)CC4)C3)c2F)c2cc[nH]c2c1=O` [Compound I-190] gave a GI50 in assay [1] of less than 500 nM. For `Cc1ccc(CCCOC2CCN(c3ncc(C(=O)N[C@H]4C(C)(C)[C@H](Oc5ccc(C#N)c(Cl)c5)C4(C)C)cn3)CC2)c(C)c1Oc1ccc(C(C)(C)O)cc1-c1cn(C)c(=O)c2[nH]ccc12` [Compound I-195], the GI50 in assay [1] was less than 500 nM. As to `Cn1cc(-c2cc(C(C)(C)O)ccc2Oc2ccc(N3CC(CC4CN(c5ncc(C(=O)N[C@H]6C(C)(C)[C@H](Oc7ccc(C#N)c(Cl)c7)C6(C)C)cn5)C4)C3)cc2)c2cc[nH]c2c1=O` [Compound I-280], the GI50 in assay [1] was less than 500 nM. In addition, the IC50 in assay [2] was 50 to 500 nM.

In turn, `CCS(=O)(=O)c1ccc(Oc2ccc(OCC3CCN(c4ncc5c(n4)CN([C@H]4C(C)(C)[C@H](Cc6ccc(C#N)c(Cl)c6)C4(C)C)C5=O)CC3)cc2)c(-c2cn(C)c(=O)c3[nH]ccc23)c1` [Compound I-220] yielded a GI50 in assay [1] of less than 500 nM. Further, the IC50 in assay [2] fell in the range of 50 to 500 nM.

The compound `Cn1cc(-c2cc(C(C)(C)O)ccc2Oc2ccc(OCC3CCN(c4ncc(C(=O)N[C@H]5C(C)(C)[C@H](Oc6ccc(C#N)c(Cl)c6)C5(C)C)cn4)CC3)cc2)c2cc[nH]c2c1=O` [Compound I-202] came in with a GI50 in assay [1] of less than 500 nM. In assay [2], this compound had an IC50 of more than 2500 nM. In the same order, the values of `Cn1cc(-c2cc(C(C)(C)O)ccc2Oc2ccc(OCCN3CCN(c4ncc(C(=O)N[C@H]5C(C)(C)[C@H](Oc6ccc(C#N)c(Cl)c6)C5(C)C)cn4)CC3)cc2)c2cc[nH]c2c1=O` [Compound I-204] are less than 500 nM and 50 to 500 nM. Consider `Cn1cc(-c2cc(C(C)(C)O)ccc2Oc2ccc(N3CC(OC4CCN(c5ncc(C(=O)N[C@H]6C(C)(C)[C@H](Oc7ccc(C#N)c(Cl)c7)C6(C)C)cn5)CC4)C3)cc2)c2cc[nH]c2c1=O` [Compound I-219], for which the GI50 in assay [1] was less than 500 nM. For the same compound, the IC50 in assay [2] was in the range of 50 to 500 nM. In the same order, the values of `CCS(=O)(=O)Nc1ccc(Oc2cccc(OC3CC(C4CCN(c5ncc(C(=O)N[C@H]6C(C)(C)[C@H](Oc7ccc(C#N)c(Cl)c7)C6(C)C)cn5)CC4)C3)c2)c(-c2cn(C)c(=O)c3[nH]ccc23)c1` (some centres unmarked) [Compound I-104] are less than 500 nM and more than 2500 nM. In the same order, the values of `Cn1cc(-c2cc(C(C)(C)O)ccc2Oc2ccc(CCCC3CC4(C3)CN(c3ncc(C(=O)N[C@H]5C(C)(C)[C@H](Oc6ccc(C#N)c(Cl)c6)C5(C)C)cn3)C4)cc2)c2cc[nH]c2c1=O` [Compound I-268] are less than 500 nM and 50 to 500 nM. The compound `CCS(=O)(=O)Nc1ccc(Oc2ccc(F)c(OCCOC3CCN(c4ncc(C(=O)N[C@H]5C(C)(C)[C@H](Oc6ccc(C#N)c(Cl)c6)C5(C)C)cn4)CC3)c2F)c(-c2cn(C)c(=O)c3[nH]ccc23)c1` [Compound I-65] came in with a GI50 in assay [1] of less than 500 nM. Same read-out and setting: to `CN(c1ccc(Oc2ccc(C(C)(C)O)cc2-c2cn(C)c(=O)c3[nH]ccc23)cc1)C1CCN(c2ncc(C(=O)N[C@H]3C(C)(C)[C@H](Oc4ccc(C#N)c(Cl)c4)C3(C)C)cn2)CC1` [Compound I-197] belongs less than 500 nM. As for `CCS(=O)(=O)Nc1ccc(Oc2cccc(OCCOCCOCCOC3CCN(c4ncc(C(=O)N[C@H]5C(C)(C)[C@H](Oc6ccc(C#N)c(Cl)c6)C5(C)C)cn4)CC3)c2)c(-c2cn(C)c(=O)c3[nH]ccc23)c1` [Compound I-7], in assay [1], the GI50 was less than 500 nM. In assay [1], `Cn1cc(-c2cc(C(C)(C)O)ccc2Oc2ccc(CC3CCN(c4ncc(C(=O)N[C@H]5C(C)(C)[C@H](Oc6ccc(C#N)c(Cl)c6)C5(C)C)cn4)CC3)cc2)c2cc[nH]c2c1=O` [Compound I-201] displayed a GI50 of less than 500 nM. In addition, in assay [2], the IC50 is more than 2500 nM. In the same order, the values of `CC(C)N(C1CCN(c2ncc(C(=O)N[C@H]3C(C)(C)[C@H](Oc4ccc(C#N)c(Cl)c4)C3(C)C)cn2)CC1)C1CN(c2cccc(Oc3ccc(C(C)(C)O)cc3-c3cn(C)c(=O)c4[nH]ccc34)c2F)C1` [Compound I-221] are less than 500 nM and 50 to 500 nM. In the same order, the values of `CN(C1CCN(c2ncc(C(=O)N[C@H]3C(C)(C)[C@H](Oc4ccc(C#N)c(Cl)c4)C3(C)C)cn2)CC1)C1CN(c2ccc(Oc3ccc(C(C)(C)O)cc3-c3cn(C)c(=O)c4[nH]ccc34)cc2)C1` [Compound I-208] are less than 500 nM and 50 to 500 nM.
